Patent US9643971B2 (GALLEON PHARMACEUTICALS, INC., priority 2013, dated 2017)
Counter-ions that a name gives are not always drawn.

How the values were obtained:
[1] = in vitro; conditions: male, rat, microsomes
[2] = system: anesthetized rat; assay: Anesthetized rat spirometry screening assay; type: in vivo; conditions: 2 minute AUC of minute volume increase vs. comparator N-[2,6-di-(n-propylamino)-[1,3]pyrimidin-4-yl]-N,O-dimethyl-hydroxylamine
Text: Effect of Compounds of the Invention on Respiratory Rate (RR), Tidal Volume (VT), and the Product Minute Volume Using an Anesthetized Rat Spirometry Screening Assay
Anesthetized rats provide a quick method of screening compounds for respiratory and cardiovascular activity. In contrast to the conscious rat model, this model offers an experimental set up with less variation in the baseline cardiovascular and respiratory measures. Compounds screened in this assay may be examined in a conscious rat model.
Rats were initially anesthetized with 3% isoflurane (inhaled) and femoral artery and vein cannulas were surgically inserted. Once cannulated, the rats were transitioned to urethane anesthesia (1.5 g/kg; i.v.) and a tracheal cut-down was performed. After placing the tracheal cannula, it was connected to a pneumotachometer to record respiratory airflow from which respiratory rate (RR), tidal volume (VT), and their product minute volume were derived. After the surgical preparation was complete, animals were allowed to stabilize for 30 minutes while respiratory rate, tidal volume, minute volume, blood pressure and heart rate were recorded continuously. Arterial blood gases (ABG) were obtained from arterial blood collected from the femoral artery. ABG measurements were taken before and 6 minutes after vehicle and each dose of compound administered. Compounds being screened were administered via bolus injections through the venous cannula followed by a saline flush (total time of administration is approximately 30 seconds), and the animal was monitored for at least 6 minutes for changes in cardiovascular efforts. Compounds were prepared in formulations identified to ensure optimal solubility. As such, vehicle controls were matched for the formulation of each compound tested. Dosing of the compound being screened was 0.1 and 0.3 mg/kg. The next dose was not administered until all cardiovascular and respiratory measures had returned to baseline levels. The positive control compounds used were N-[4,6-di-(n-propylamino)-[1,3,5]triazin-2-yl]-N,O-dimethyl-hydroxylamine or N-[2,6-di-(n-propylamino)-[1,3]pyrimidin-4-yl]-N,O-dimethyl-hydroxylamine (both administered at the end of each screening experiment (0.3 mg/kg dose) to validate the experiment and also to serve as a measure with which the compound being screened could be compared.
Data were analyzed by collecting cardiovascular and respiratory data in 30 second averages (BINs). Data were plotted 2 minutes before challenge and then 6 minutes after challenge.

[3] = In vitro metabolic stability in human liver microsomes (HLM); conditions: both, human, liver microsomes

Structure (SMILES) | half-life at 5 μM [1] | half-life at 5 μM [3] | AUC MV Inc (2 min) (ratio vs. std*) [2]
CCCCNc1nc(NCCC)c2nc(NCCCC)nc(NCCC)c2n1.Cl [Compound 8a, N^2,N^6-Di-n-butyl-N^4,N^8-di-n-propyl-pyrimido[5,4-d]pyrimidine-2,4,6,8-tetraamine hydrochloride] | 5.52 h | > 8.33 h | 0.14 ratio vs. std
CCCNc1nc(N(C)C)nc2c(NCCC)nc(NC)nc12.Cl [Compound 29a, N^2,N^2,N^6-Trimethyl-N^4,N^8-di-n-propyl-pyrimido[5,4-d]pyrimidine-2,4,6,8-tetraamine hydrochloride] | 0.733 h | 1.57 h | 0.95 ratio vs. std
CCCNc1nc(N(CC)CC)nc2c(NCCC)nc(NC)nc12.Cl [Compound 31a, N^2,N^2-Diethyl-N^6-methyl-N^4,N^8-di-n-propyl-pyrimido[5,4-d]pyrimidine-2,4,6,8-tetraamine hydrochloride] | 1.8 h | 6.95 h | 0.01 ratio vs. std
CCCNc1nc(NCCOC)nc2c(NCCC)nc(NC)nc12 [Compound 35a, N^2-(2-Methoxyethyl)-N^6-methyl-N^4,N^8-di-n-propyl-pyrimido[5,4-d]pyrimidine-2,4,6,8-tetraamine] | 1.7 h | 3.75 h | 1.33 ratio vs. std
CCCNc1nc(N2CCCC2)nc2c(NCCC)nc(NC)nc12 [Compound 45a, N^2-Methyl-N^4,N^8-di-n-propyl-6-pyrrolidin-1-yl-pyrimido[5,4-d]pyrimidine-2,4,8-triamine] | > 8.33 h | > 8.33 h | 0.41 ratio vs. std
CCCNc1nc(N2CCC(OC)CC2)nc2c(NCCC)nc(NC)nc12 [Compound 47a, N^2-Methyl-N^4,N^8-di-n-propyl-6-(4-methoxy-piperidin-1-yl)-pyrimido[5,4-d]pyrimidine-2,4,8-triamine] | 1.77 h | 1.83 h | 0.00 ratio vs. std
CCCNc1nc(NCc2cccc(Cl)c2C)nc2c(NCCC)nc(NC)nc12 [Compound 49a, N^2-(3-Chloro-2-methyl-benzyl)-N^6-methyl-N^4,N^8-di-n-propyl-pyrimido[5,4-d]pyrimidine-2,4,6,8-tetraamine hydrochloride] | 1.4 h | 3.17 h | 0.11 ratio vs. std
CCCNc1nc(NC)c2nc(Cl)nc(NC)c2n1 [Compound 54, 6-Chloro-N^4,N^8-dimethyl-N^2-n-propyl-pyrimido[5,4-d]pyrimidine-2,4,8-triamine] | 0.667 h | 1.37 h | 0.09 ratio vs. std
CCNc1nc(NC)c2nc(NCC)nc(NC)c2n1.Cl [Compound 81a, N^2,N^6-Diethyl-N^4,N^8-dimethyl-pyrimido[5,4-d]pyrimidine-2,4,6,8-tetraamine hydrochloride] | 4.57 h | 3.3 h | 0.00 ratio vs. std

Now from value to compound, other results behind:

half-life at 5 μM [1] | half-life at 5 μM [3] | Structure (SMILES) | AUC MV Inc (2 min) (ratio vs. std*) [2]
2.7 h | 7.7 h | CCCNc1nc(NC(C)C)nc2c(NCCC)nc(NC(C)C)nc12.Cl [Compound 10a, N^2,N^6-Di-i-propyl-N^4,N^8-di-n-propyl-pyrimido[5,4-d]pyrimidine-2,4,6,8-tetraamine hydrochloride] | 0.07 ratio vs. std
3.4 h | 5.7 h | C#CCNc1nc(NC)nc2c(NCCC)nc(NC)nc12.Cl [Compound 13a, N^2,N^6-Dimethyl-N^4-n-propyl-N^8-prop-2-ynyl-pyrimido[5,4-d]pyrimidine-2,4,6,8-tetraamine hydrochloride] | 0.56 ratio vs. std
0.417 h | 0.483 h | CCCNc1nc(N(C)OC)nc2c(NCCC)nc(Cl)nc12.Cl [Compound 17a, N-(6-Chloro-4,8-bis-n-propylamino-pyrimido[5,4-d]pyrimidin-2-yl)-O,N-dimethyl-hydroxylamine hydrochloride] | 0.05 ratio vs. std
1.77 h | 1.83 h | CCCNc1nc(N(C)OC)nc2c(NCCC)nc(N(C)OC)nc12 [Compound 19a, N^2,N^6-Bis-(N-Methoxy(N-methyl)amino)-N^4,N^8-bis-n-propylamino-pyrimido[5,4-d]pyrimidine hydrochloride] | 0.00 ratio vs. std
2.7 h | 1.98 h | CCCNc1nc(N(C)OC)nc2c(NCCC)nc(NC)nc12.Cl [Compound 24a, O,N-Dimethyl-N-(6-methylamino-4,8-bis-n-propylamino-pyrimido[5,4-d]pyrimidin-2-yl)-hydroxylamine hydrochloride] | 0.43 ratio vs. std
1.77 h | 1.92 h | CCCNc1nc(NCCO)nc2c(NCCC)nc(NC)nc12 [Compound 33a, 2-(6-Methylamino-4,8-bis-n-propylamino-pyrimido[5,4-d]pyrimidin-2-yl-amino)-ethanol] | 0.29 ratio vs. std
1.27 h | 2.25 h | CCCNc1nc(NCCOC(C)C)nc2c(NCCC)nc(NC)nc12 [Compound 37a, N^2-(2-Isopropoxy-ethyl)-N^6-methyl-N^4,N^8-di-n-propyl-pyrimido[5,4-d]pyrimidine-2,4,6,8-tetraamine] | 1.23 ratio vs. std
1.15 h | 1.63 h | CCCNc1nc(N2CCCCC2)nc2c(NCCC)nc(NC)nc12 [Compound 43a, N^2-Methyl-N^4,N^8-di-n-propyl-6-(piperidin-1-yl)-pyrimido[5,4-d]pyrimidine-2,4,8-triamine] | 0.20 ratio vs. std
1.2 h | 2.12 h | CCCNc1nc(NCc2ccc(Cl)c(Cl)c2)nc2c(NCCC)nc(NC)nc12 [Compound 51a, N^2-(3,4-Dichlorobenzyl)-N^6-methyl-N^4,N^8-di-n-propyl-pyrimido[5,4-d]pyrimidine-2,4,6,8-tetraamine] | 0.08 ratio vs. std
1.57 h | 1.32 h | CCCNc1nc(NCc2ccc(F)cc2)nc2c(NCCC)nc(NC)nc12 [Compound 53a, N^2-(4-Fluorobenzyl)-N^6-methyl-N^4,N^8-di-n-propyl-pyrimido[5,4-d]pyrimidine-2,4,6,8-tetraamine] | 0.06 ratio vs. std
6.47 h | > 8.33 h | CNc1nc(NC)c2nc(NC)nc(NC)c2n1.Cl [Compound 79a, N^2,N^4,N^6,N^8-Tetramethyl-pyrimido[5,4-d]pyrimidine-2,4,6,8-tetraamine hydrochloride] | 0.00 ratio vs. std
0.833 h | 1.18 h | CCCNc1nc(NCC2CC2)nc2c(NCCC)nc(NCC3CC3)nc12 [Compound 140a, N^2,N^6-Bis-cyclopropylmethyl-N^4,N^8-di-n-propyl-pyrimido[5,4-d]pyrimidine-2,4,6,8-tetraamine] | 
